Data reported in patent US20260176279A1, “DUAL RAF AND TUBULIN INHIBITORS AND METHODS OF USE THEREOF” (Deciphera Pharmaceuticals, LLC, priority 2023, published 2026).
Read-outs that look alike come from different tables or passages of the source.

Tests used:
MiaPaca-2 cells = assay: MiaPaca-2 Cell Proliferation Assay; type: cell-based; conditions: Homo sapiens, MIA PaCa-2
Experimental: MiaPaca-2 cells (catalog #CRL-1420) are obtained from the American Type Culture Collect (ATTC, Manassas, VA). Briefly, cells were grown in DMEM supplemented with 10% characterized fetal bovine serum (Invitrogen, Carlsbad, CA), 2.5% New Zealand sourced horse serum and 1% Penicillin/Streptomycin/L-Glutamine at 37° C., 5% CO2, and 95% humidity. Cells are expanded until reaching 70-95% confluency at which point they are sub-cultured or harvested for assay use. For assays completed in 96-well plates, a serial dilution of test compound is dispensed into a 96-well black clear bottom plate in triplicate. Three thousand cells are added per well in 200 μL complete growth medium in the 96-well plate. Plates are incubated for 67 to 72 h at 37° C., 5% CO2, and 95% humidity. At the end of the incubation, 40 μL of a […] solution of resazurin (Sigma, St. Louis, MO) in PBS is added to each well of the plate and plates are incubated for an additional 5 to 6 hours at 37° C., 5% CO2, and 95% humidity. For 384-well assays, a threefold, 8-point serial dilution of compound was spotted column wise into a 384 well black, clear bottom, tissue culture treated plate using the Beckman Coulter Echo 650. Likewise, a threefold, 8-point serial dilution of cobimetinib was spotted row wise into the 384 well black, clear bottom plate containing compound. DMSO concentration was constant across all wells at 0.4%. Seven hundred fifty cells are added per well in 50 μL complete growth medium in each 384-well plate. Plates are incubated for 67 to 72 h at 37° C., 5% CO2, and 95% humidity. At the end of the incubation, 10 μL of a 440 μM solution of resazurin (Sigma, St. Louis, MO) in PBS is added to each well of the plate and plates are incubated for an additional 4 to 6 h at 37° C., 5% CO2, and 95% humidity. Plates are read on a Synergy2 or equivalent reader (Biotek, Winooski VT) using an excitation of 540 nm and an emission of 600 nm. Data is analyzed using Prism software (Graphpad, San Diego, CA) to calculate IC50 values.

HCT-116 cells = assay: HCT-116 Cell Proliferation Assay; type: cell-based; conditions: Homo sapiens
Experimental: HCT-116 cells (catalog #CCL-247) are obtained from the American Type Culture Collect (ATCC, Manassas, VA). Briefly, cells are grown in McCoy's 5A supplemented with 10% characterized fetal bovine serum (Invitrogen, Carlsbad, CA) and 1% Penicillin/Streptomycin/L-Glutamine at 37° C., 5% CO2, and 95% humidity. Cells are expanded until reaching 70-95% confluency at which point they are sub-cultured or harvested for assay use. A serial dilution of test compound is dispensed into a 384-well black clear bottom plate in triplicate. 375 cells are added per well in 50 μL complete growth medium in the 384-well plate. Plates are incubated for 67 to 72 h at 37° C., 5% CO2, and 95% humidity. At the end of the incubation, 40 μL of a […] solution of resazurin (Sigma, St. Louis, MO) in PBS is added to each well of the plate and plates are incubated for an additional 4 to 5 hours at 37° C., 5% CO2, and 95% humidity. Plates are read on a Synergy2 or equivalent reader (Biotek, Winooski, VT) using an excitation of 540 nm and an emission of 600 nm. Data is analyzed using Prism software (Graphpad, San Diego, CA) to calculate IC50 values.

HPAF-II cells = assay: HPAF-II Cell Proliferation Assay; type: cell-based; conditions: Homo sapiens
Experimental: HPAF-II cells (catalog #CRL-1997) are obtained from the American Type Culture Collect (ATCC, Manassas, VA). Briefly, cells are grown in Minimum Essential Media supplemented with 10% characterized fetal bovine serum (Invitrogen, Carlsbad, CA) and 1% Penicillin/Streptomycin/L-Glutamine at 37° C., 5% CO2, and 95% humidity. Cells are expanded until reaching 70-95% confluency at which point they are sub-cultured or harvested for assay use. A serial dilution of test compound is dispensed into a 384-well black clear bottom plate in triplicate. 750 cells are added per well in 50 μL complete growth medium in the 384-well plate. Plates are incubated for 115 to 120 h at 37° C., 5% CO2, and 95% humidity. At the end of the incubation, 40 μL of a […] solution of resazurin (Sigma, St. Louis, MO) in PBS is added to each well of the plate and plates are incubated for an additional 18 to 24 h at 37° C., 5% CO2, and 95% humidity. Plates are read on a Synergy2 or equivalent reader (Biotek, Winooski, VT) using an excitation of 540 nm and an emission of 600 nm. Data is analyzed using Prism software (Graphpad, San Diego, CA) to calculate IC50 values.

C-Raf kinase = target: T1, C-Raf kinase (Homo sapiens, UniProt P04049, Y340D/Y341D); assay: Biochemical Assay for C-Raf (coupled pyruvate kinase/lactate dehydrogenase assay)
T1 construct: C-Raf residues 306-end; Y340D, Y341D with N-; GST (N); purchased Eurofins

B-Raf kinase = target: T2, B-Raf kinase (Homo sapiens, UniProt P15056); assay: Biochemical Assay for B-Raf (coupled pyruvate kinase/lactate dehydrogenase assay)
T2 construct: GST (N); purchased Sigma

tubulin = assay: Cellular Tubulin Polymerization Assay (HCT-116 cells); type: cell-based
[1] = Table 2, inhibition of cell proliferation, read-out: MiaPaca-2
[2] = Table 3, read-out: MiaPaca-2 IC50
[3] = Table 1, inhibition of biochemical activity, read-out: CRAF
[4] = HCT-116, Table 3, read-out: HCT-116 IC50
[5] = HPAF-II, Table 3, read-out: HPAF-II IC50
[6] = Table 1, inhibition of biochemical activity, read-out: BRAF
[7] = Table 3, HCT-116 cells, read-out: Tubulin Cellular IC50
[8] = Table 2, inhibition of cell proliferation, read-out: HCT-116
[9] = Table 2, inhibition of cell proliferation, read-out: HPAF-II
[10] = read-out: Tubulin Cellular, Table 5, HCT-116 cells
[11] = Table 4, read-out: MiaPaca-2 IC50
[12] = HCT-116, Table 4, read-out: HCT-116 IC50
[13] = HPAF-II, Table 4, read-out: HPAF-II IC50
[14] = Table 4, HCT-116 cells, read-out: Tubulin Cellular IC50

T1 sequence (P04049 307-648 Y340D/Y341D): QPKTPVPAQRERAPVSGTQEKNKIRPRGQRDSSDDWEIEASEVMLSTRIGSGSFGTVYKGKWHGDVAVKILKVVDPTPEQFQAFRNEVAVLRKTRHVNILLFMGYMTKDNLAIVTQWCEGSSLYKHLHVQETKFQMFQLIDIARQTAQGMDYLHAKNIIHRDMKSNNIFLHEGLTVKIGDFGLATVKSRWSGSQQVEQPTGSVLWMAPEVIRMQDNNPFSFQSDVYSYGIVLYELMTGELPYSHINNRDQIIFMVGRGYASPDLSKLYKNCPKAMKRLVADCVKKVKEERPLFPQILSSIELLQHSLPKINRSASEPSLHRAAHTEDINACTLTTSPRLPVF
T2 sequence (P15056 416-766): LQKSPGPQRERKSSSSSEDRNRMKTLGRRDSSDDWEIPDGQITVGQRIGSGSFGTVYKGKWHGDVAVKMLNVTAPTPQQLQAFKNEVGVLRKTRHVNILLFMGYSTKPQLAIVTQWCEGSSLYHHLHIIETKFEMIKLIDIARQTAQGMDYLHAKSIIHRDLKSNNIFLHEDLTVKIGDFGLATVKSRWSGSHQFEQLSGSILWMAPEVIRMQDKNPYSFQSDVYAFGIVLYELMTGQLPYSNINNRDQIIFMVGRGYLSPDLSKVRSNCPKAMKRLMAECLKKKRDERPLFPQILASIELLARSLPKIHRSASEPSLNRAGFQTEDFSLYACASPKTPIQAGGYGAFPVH

IC50 (MiaPaca-2 cells; [1]) [nM] | IC50 (MiaPaca-2 cells; [2]) [nM] | IC50 (C-Raf kinase; [3]) [nM] | IC50 (C-Raf kinase; Table 3, read-out: CRAF IC50) [nM] | IC50 (HCT-116 cells; [4]) [nM] | IC50 (B-Raf kinase; [6]) [nM] | IC50 (B-Raf kinase; Table 3, read-out: BRAF IC50) [nM] | IC50 (tubulin; [7]) [nM] | IC50 (HCT-116 cells; [8]) [nM] | SMILES | IC50 (HPAF-II cells; [5]) [nM] | IC50 (HPAF-II cells; [9]) [nM] | also measured
– | – | – | – | – | – | – | – | – | Cc1ccc2c(Nc3cccc(Cl)c3F)nccc2c1NC(=O)c1csc2c(N)ncnc12 [Belvarafenib, reference compound] | – | – | IC50 (MiaPaca-2 cells; Table 5, read-out: MiaPaca-2): 1000 to 10000 nM; IC50 (HCT-116 cells; Table 5, read-out: HCT-116): 500 to 1000 nM; IC50 (HPAF-II cells; Table 5, read-out: HPAF-II): 1000 to 10000 nM
< 100 | < 100 | < 100 | < 100 | 100 to 500 | < 100 | < 100 | 100 to 500 | – | Cc1ccc(NC(=O)Nc2ccc(C(F)(F)F)nc2)cc1-c1ccnc(-c2ccnc(NC(=O)CN(C)C)c2)c1 [Example 18] | 100 to 500 | – | –
100 to 500 | 100 to 500 | < 100 | < 100 | 100 to 500 | 100 to 500 | < 100 | < 100 | 100 to 500 | CNc1cc(-c2cc(-c3cc(NC(=O)Nc4ccc(C(F)(F)F)nc4)ccc3C)ccn2)ccn1 [Example 19] | 100 to 500 | 100 to 500 | –
< 100 | < 100 | < 100 | < 100 | < 100 | 100 to 500 | 100 to 500 | < 100 | < 100 | CNC(=O)c1cc(-c2cc(-c3cc(NC(=O)Nc4ccc(C(F)(F)F)nc4)ccc3C)ccn2)ccn1 [Example 20] | 100 to 500 | 100 to 500 | –
< 100 | < 100 | < 100 | 100 to 500 | < 100 | 100 to 500 | 100 to 500 | < 100 | < 100 | Cc1ccc(NC(=O)Nc2ccc(C(F)(F)F)nc2)cc1-c1ccnc(N2CCOCC2)c1 [Example 36] | < 100 | < 100 | –
– | – | – | – | – | – | – | – | – | Cc1ccc(NC(=O)N2CC[C@@H](CC(F)(F)F)C2)cc1-c1cc(N[C@H](C)CO)nc(N2CCOCC2)c1 [Exarafenib, reference compound] | – | – | IC50 (tubulin; [10]): 1000 to 10000 nM
– | – | – | – | – | – | – | – | – | C[C@@H](NC(=O)c1ncnc(N)c1Cl)c1ncc(C(=O)Nc2cc(C(F)(F)F)c(Cl)cn2)s1 [Tovorafenib, reference compound] | – | – | IC50 (tubulin; [10]): 1000 to 10000 nM
– | – | – | – | – | – | – | – | – | Cc1cc(F)c(NC(=O)NCCC(C)(C)C)cc1-c1cc(OCCO)nc(N2CCOCC2)c1 [reference compound] | – | – | IC50 (MiaPaca-2 cells; [11]): 1000 to 10000 nM; IC50 (C-Raf kinase; Table 4, read-out: CRAF IC50): < 100 nM; IC50 (HCT-116 cells; [12]): 1000 to 10000 nM; IC50 (HPAF-II cells; [13]): 1000 to 10000 nM; IC50 (B-Raf kinase; Table 4, read-out: BRAF IC50): < 100 nM; IC50 (tubulin; [14]): 1000 to 10000 nM
– | – | – | – | – | – | – | – | – | CC(=O)Nc1cc(-c2cc(-c3cc(NC(=O)NCCC4(C)CC4)c(F)cc3C)ccn2)ccn1 [reference compound] | – | – | IC50 (MiaPaca-2 cells; [11]): 1000 to 10000 nM; IC50 (C-Raf kinase; Table 4, read-out: CRAF IC50): < 100 nM; IC50 (HCT-116 cells; [12]): 500 to 1000 nM; IC50 (HPAF-II cells; [13]): 500 to 1000 nM; IC50 (B-Raf kinase; Table 4, read-out: BRAF IC50): < 100 nM; IC50 (tubulin; [14]): 1000 to 10000 nM
